Experimental data from patent US10149879B2 (priority 2014, dated 2018).

Assays:
[1] = tested on: βTC6 insulinoma cell; assay: Anti-oxidant activity in βTC6 insulinoma cell challenged with H2O2; assay type: cell-based; design: Anti-oxidant activity, cells challenged with H2O2: unit not given here; conditions: for Anti-oxidant activity, cells challenged with H2O2: βTC6
Source text: Anti-Oxidant Activity in βTC6 Insulinoma Cell Challenged with H2O2 Berberin and Quercetin—
Anti-Oxidant Activity in βTC6 Insulinoma Cell Challenged with H2O2 Berberin and Palmatine—

[2] = tested on: βTC6 insulinoma cell; assay: Cell viability assay in βTC6 insulinoma cell line; assay type: cell-based; conditions: βTC6, control 100.00
Source text: Cell Viability Assay in βTC6 Insulinoma Cell Lime Following—

[3] = tested on: 3T3-L1 cells; assay: Anti-oxidant activity in 3T3-L1 cells challenged with H2O2; assay type: cell-based; design: Anti-oxidant activity, cells challenged with H2O2: scale not given here; conditions: for Anti-oxidant activity, cells challenged with H2O2: 3T3-L1; for protection against H2O2 induced cellular oxidative damage: 3T3-L1 cells
Source text: Anti-Oxidant Activity in 3T3-L1 Cells Challenged with H2O2 Berberin and Palmatine
Anti-Oxidant Activity in 3T3-L1 Cells Challenged with H2O2 Berberin and Quercetin

[4] = tested on: 3T3-L1 cells; assay: Cell viability assay in 3T3-L1 cells; conditions: for Cell viability: 3T3-L1, control 100.00
[5] = tested on: L6 cells; assay: Anti-oxidant activity in L6 cells challenged with H2O2; assay type: cell-based; design: Anti-oxidant activity, cells challenged with H2O2: unit not given here; conditions: for Anti-oxidant activity, cells challenged with H2O2: L6; for protection against H2O2 induced cellular oxidative damage: L6 cells
Source text: Anti-Oxidant Activity in L6 Cells Challenged with H2O2 Berberin and Palmatine
Anti-Oxidant Activity in L6 Cells Challenged with H2O2—Berberin and Quercetin

[6] = tested on: L6-myotubes; assay: Anti-diabetic activity (glucose consumption) in L6-myotubes; assay type: cell-based; design: Anti-diabetic activity (glucose consumption): unit not given here; conditions: for Anti-diabetic activity (glucose consumption): L6-myotubes, control 1.00
[7] = comparison with positive standard

COc1cc2c(cc1OC)-c1cc3ccc(OC)c(OC)c3c[n+]1CC2 [Palmatine]
Anti-oxidant activity, cells challenged with H2O2 ([1]; Co-incubated, 1 pM, control 55.54): 56.95 ± 3.60
Anti-oxidant activity, cells challenged with H2O2 ([1]; Co-incubated, 10 pM, control 55.54): 57.04 ± 2.00
Anti-oxidant activity, cells challenged with H2O2 ([1]; Co-incubated, 0.1 nM, control 55.54): 60.10 ± 1.41
Anti-oxidant activity, cells challenged with H2O2 ([1]; Co-incubated, 1 nM, control 55.54): 61.75 ± 2.16
Anti-oxidant activity, cells challenged with H2O2 ([1]; Co-incubated, 10 nM, control 55.54): 65.83 ± 0.81
Anti-oxidant activity, cells challenged with H2O2 ([1]; Pre-incubated, 1 pM, control 55.54): 55.32 ± 1.48
Anti-oxidant activity, cells challenged with H2O2 ([1]; Pre-incubated, 10 pM, control 55.54): 61.67 ± 2.10
Anti-oxidant activity, cells challenged with H2O2 ([1]; Pre-incubated, 0.1 nM, control 55.54): 65.18 ± 1.95
Anti-oxidant activity, cells challenged with H2O2 ([1]; Pre-incubated, 1 nM, control 55.54): 67.05 ± 2.40
Anti-oxidant activity, cells challenged with H2O2 ([1]; Pre-incubated, 10 nM, control 55.54): 69.58 ± 2.55
anti-oxidant activity ([1]; βTC6 cells challenged with hydrogen peroxide): potent anti-oxidant activity
protection against H2O2 induced cellular oxidative damage ([1]; βTC6 insulinoma cells): Mild Protection
Cell viability ([2]; 1 pM): 97.96 ± 1.10
Cell viability ([2]; 10 pM): 97.50 ± 2.05
Cell viability ([2]; 100 pM): 96.52 ± 2.70
Cell viability ([2]; 1 nM): 94.80 ± 1.32
Cell viability ([2]; 10 nM): 91.66 ± 1.60
Cell viability ([2]; 100 nM): 84.45 ± 1.30
Cell viability ([2]; 1 μM): 83.20 ± 1.90
Cell viability ([2]; 10 μM): 81.98 ± 1.70
Anti-oxidant activity, cells challenged with H2O2 ([3]; Co-incubated, 10 pM, control 50.00): 54.85 ± 2.20
Anti-oxidant activity, cells challenged with H2O2 ([3]; Co-incubated, 100 pM, control 50.00): 57.18 ± 1.20
Anti-oxidant activity, cells challenged with H2O2 ([3]; Co-incubated, 1 nM, control 50.00): 59.87 ± 2.70
Anti-oxidant activity, cells challenged with H2O2 ([3]; Co-incubated, 10 nM, control 50.00): 63.00 ± 1.10
Anti-oxidant activity, cells challenged with H2O2 ([3]; Co-incubated, 100 nM, control 50.00): 65.75 ± 1.40
Anti-oxidant activity, cells challenged with H2O2 ([3]; Pre-incubated, 10 pM, control 50.00): 53.18 ± 3.25
Anti-oxidant activity, cells challenged with H2O2 ([3]; Pre-incubated, 100 pM, control 50.00): 55.13 ± 1.50
Anti-oxidant activity, cells challenged with H2O2 ([3]; Pre-incubated, 1 nM, control 50.00): 57.00 ± 1.25
Anti-oxidant activity, cells challenged with H2O2 ([3]; Pre-incubated, 10 nM, control 50.00): 61.40 ± 0.25
Anti-oxidant activity, cells challenged with H2O2 ([3]; Pre-incubated, 100 nM, control 50.00): 67.25 ± 2.25
protection against H2O2 induced cellular oxidative damage ([3]; pM-nM doses): mild protection
Cell viability ([4]; 10 pM): 100.00 ± 0.10
Cell viability ([4]; 100 pM): 99.99 ± 0.54
Cell viability ([4]; 1 nM): 99.45 ± 0.48
Cell viability ([4]; 10 nM): 98.30 ± 1.80
Cell viability ([4]; 100 nM): 98.90 ± 1.06
Cell viability ([4]; 1 μM): 95.15 ± 1.58
Cell viability ([4]; 10 μM): 89.26 ± 1.30
Cell viability ([4]; 100 μM): 83.10 ± 1.67
toxicity to the cell ([4]; 3T3-L1 cells, 1 μM): non-toxic
Anti-oxidant activity, cells challenged with H2O2 ([5]; Co-incubated, 10 pM, control 60.10): 56.13 ± 6.40
Anti-oxidant activity, cells challenged with H2O2 ([5]; Co-incubated, 100 pM, control 60.10): 60.50 ± 5.50
Anti-oxidant activity, cells challenged with H2O2 ([5]; Co-incubated, 1 nM, control 60.10): 63.91 ± 5.04
Anti-oxidant activity, cells challenged with H2O2 ([5]; Co-incubated, 10 nM, control 60.10): 67.53 ± 8.12
Anti-oxidant activity, cells challenged with H2O2 ([5]; Co-incubated, 100 nM, control 60.10): 71.70 ± 6.16
Anti-oxidant activity, cells challenged with H2O2 ([5]; Pre-incubated, 10 pM, control 60.10): 58.70 ± 4.70
Anti-oxidant activity, cells challenged with H2O2 ([5]; Pre-incubated, 100 pM, control 60.10): 63.30 ± 3.16
Anti-oxidant activity, cells challenged with H2O2 ([5]; Pre-incubated, 1 nM, control 60.10): 66.12 ± 5.85
Anti-oxidant activity, cells challenged with H2O2 ([5]; Pre-incubated, 10 nM, control 60.10): 66.70 ± 3.12
Anti-oxidant activity, cells challenged with H2O2 ([5]; Pre-incubated, 100 nM, control 60.10): 70.00 ± 5.95
protection against H2O2 induced cellular oxidative damage ([5]; pM-nM doses): mild protection
Anti-diabetic activity (glucose consumption) ([6]; 1 nM): 1.58 ± 0.10
Anti-diabetic activity (glucose consumption) ([6]; 5 nM): 1.78 ± 1.10
Anti-diabetic activity (glucose consumption) ([6]; 25 nM): 2.12 ± 0.09
Anti-diabetic activity (glucose consumption) ([6]; 125 nM): 2.35 ± 0.12
Anti-diabetic activity (glucose consumption) ([6]; 625 nM): 2.60 ± 0.10
glucose consumption ([6]; differentiated L6-myotubes, dose dependent): accelerated glucose consumption

O=c1c(O)c(-c2ccc(O)c(O)c2)oc2cc(O)cc(O)c12 [Quercetin]
Anti-oxidant activity, cells challenged with H2O2 ([1]; Co-incubated, 0.1 pM, control 55.64): 60.31 ± 2.71
Anti-oxidant activity, cells challenged with H2O2 ([1]; Co-incubated, 1 pM, control 55.64): 67.11 ± 2.71
Anti-oxidant activity, cells challenged with H2O2 ([1]; Co-incubated, 10 pM, control 55.64): 70.10 ± 2.30
Anti-oxidant activity, cells challenged with H2O2 ([1]; Co-incubated, 100 pM, control 55.64): 80.72 ± 1.20
Anti-oxidant activity, cells challenged with H2O2 ([1]; Co-incubated, 1 nM, control 55.64): 90.44 ± 1.94
Anti-oxidant activity, cells challenged with H2O2 ([1]; Pre-incubated, 0.1 pM, control 55.64): 64.00 ± 2.10
Anti-oxidant activity, cells challenged with H2O2 ([1]; Pre-incubated, 1 pM, control 55.64): 68.38 ± 1.79
Anti-oxidant activity, cells challenged with H2O2 ([1]; Pre-incubated, 10 pM, control 55.64): 77.51 ± 2.06
Anti-oxidant activity, cells challenged with H2O2 ([1]; Pre-incubated, 100 pM, control 55.64): 81.63 ± 1.50
Anti-oxidant activity, cells challenged with H2O2 ([1]; Pre-incubated, 1 nM, control 55.64): 87.59 ± 1.95
Anti-oxidant activity, cells challenged with H2O2 ([3]; Co-incubated, 0.1 pM, control 50.00): 57.30 ± 1.70
Anti-oxidant activity, cells challenged with H2O2 ([3]; Co-incubated, 1 pM, control 50.00): 65.00 ± 2.75
Anti-oxidant activity, cells challenged with H2O2 ([3]; Co-incubated, 10 pM, control 50.00 ± 0.40): 68.01 ± 2.75
Anti-oxidant activity, cells challenged with H2O2 ([3]; Co-incubated, 100 pM, control 50.00 ± 0.40): 78.70 ± 3.50
Anti-oxidant activity, cells challenged with H2O2 ([3]; Co-incubated, 1 nM, control 50.00 ± 0.40): 88.40 ± 1.90
Anti-oxidant activity, cells challenged with H2O2 ([3]; Pre-incubated, 0.1 pM, control 50.00): 61.00 ± 3.00
Anti-oxidant activity, cells challenged with H2O2 ([3]; Pre-incubated, 1 pM, control 50.00): 65.00 ± 1.70
Anti-oxidant activity, cells challenged with H2O2 ([3]; Pre-incubated, 10 pM, control 50.00 ± 0.40): 75.15 ± 2.99
Anti-oxidant activity, cells challenged with H2O2 ([3]; Pre-incubated, 100 pM, control 50.00 ± 0.40): 88.60 ± 2.60
Anti-oxidant activity, cells challenged with H2O2 ([3]; Pre-incubated, 1 nM, control 50.00 ± 0.40): 94.15 ± 1.70
protection against H2O2 induced cellular oxidative damage [3, 7]: superior even at lower concentration
Anti-oxidant activity, cells challenged with H2O2 ([5]; Co-incubated, 0.1 pM, control 61.10): 57.50 ± 1.80
Anti-oxidant activity, cells challenged with H2O2 ([5]; Co-incubated, 1 pM, control 61.10): 65.05 ± 2.80
Anti-oxidant activity, cells challenged with H2O2 ([5]; Co-incubated, 10 pM, control 61.10): 70.36 ± 2.96
Anti-oxidant activity, cells challenged with H2O2 ([5]; Co-incubated, 100 pM, control 61.10): 78.18 ± 2.99
Anti-oxidant activity, cells challenged with H2O2 ([5]; Co-incubated, 1 nM, control 61.10): 88.64 ± 1.99
Anti-oxidant activity, cells challenged with H2O2 ([5]; Pre-incubated, 0.1 pM, control 61.10): 63.60 ± 1.50
Anti-oxidant activity, cells challenged with H2O2 ([5]; Pre-incubated, 1 pM, control 61.10): 68.02 ± 1.40
Anti-oxidant activity, cells challenged with H2O2 ([5]; Pre-incubated, 10 pM, control 61.10): 75.12 ± 3.50
Anti-oxidant activity, cells challenged with H2O2 ([5]; Pre-incubated, 100 pM, control 61.10): 87.90 ± 1.60
Anti-oxidant activity, cells challenged with H2O2 ([5]; Pre-incubated, 1 nM, control 61.10): 95.15 ± 0.99
protection against H2O2 induced cellular oxidative damage [5, 7]: potent protection

Insulin: reference line in the L6-myotubes glucose consumption table
Anti-diabetic activity (glucose consumption) ([6]; Insulin line, concentration not given): 3.70 ± 0.15
